For the experiment, the target named is T1, human GPR68 (Homo sapiens, UniProt Q15743).
T1 construct: host or cells: HEK293T
T1 sequence (Q15743 whole entry): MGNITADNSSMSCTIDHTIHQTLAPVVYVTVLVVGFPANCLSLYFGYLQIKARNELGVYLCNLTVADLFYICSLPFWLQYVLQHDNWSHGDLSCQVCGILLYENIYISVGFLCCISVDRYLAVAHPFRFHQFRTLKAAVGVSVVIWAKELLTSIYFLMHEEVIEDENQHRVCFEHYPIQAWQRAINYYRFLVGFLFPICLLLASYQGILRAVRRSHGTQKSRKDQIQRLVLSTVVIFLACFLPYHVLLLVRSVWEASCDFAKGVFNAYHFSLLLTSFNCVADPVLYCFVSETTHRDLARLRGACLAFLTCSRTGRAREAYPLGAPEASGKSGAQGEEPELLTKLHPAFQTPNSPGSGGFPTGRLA
Put plainly: GPR68 cAMP GloSensor assay. It counts as cell-based. Conditions: HEK293T cells transiently transfected with GPR68 and GloSensor-22F cAMP reporter; activation at pH 6.0; 10 μM top, 3-fold, 10 points, in duplicate. The source says:
The assay was developed to provide a quick screen assay to determine the potency and EC50s/IC50s of compounds against the GPR68 receptor with transient transfection cell.
GPR68 senses extracellular pH.
To determine the compound activity in GPR68 inhibition, an GPR68 dependent cAMP assay was developed and validated. Principle of this method: Expression of GPR68 in HEK293T cells by transient transfection of a GPR68-expression vector and a cAMP-sensing reporter vector (GloSensor, Promega). The transfected cells as a pool will be re-plated uniformly in assay plates, to minimize the in-experiment variation. The GPR68 receptor signal will be measured via Gs to CAMP increase as indicated by the Luc activation under basal (pH8.4 or pH7.4) or activated (pH6.5 or pH6.0) states.
• GloSensor™ CAMP Reagent (Promega, Cat #E1291) • human GPR68 NM_001177676.2_pcDNA3.1 (+)(Genscript) • The GloSensor™-22F CAMP Reporter Vector (Promega, Cat #E2301) • DMEM (Gibco, Cat #11995065) • FBS, Qualified, New Zealand origin (Gibco, Cat #10091148) • Penicillin-Streptomycin (Gibco, Cat #15140122) • 0.25% Trypsin-EDTA (Gibco, Cat #25200056) • PBS (Gibco, Cat #10010049) • 1x HBSS (Gibco, Cat #14175079) • HEPES (Gibco, Cat #15630080) • MES (Sigma, Cat #M2933-25G) • TAPS (Sigma, Cat #T5316-25G) • NaOH (Sigma, Cat #221465) • BSA (Sigma, Cat #B2064-50G) • Opti-MEM (Gibco, Cat #31985070) • DMSO (Sigma, Cat #D5879-1L) • FuGene HD Transfection Reagent (Promega, Cat #E2311)
• 1) Detached cells with 0.25% Trypsin when the cell confluence was about 80%. • 2)Resuspended the detached cells in 3 ml fresh cell culture medium. Counted the cell number and diluted the cells to proper density. • 3) Seeded 1.5∧10∧6 cells into 6-well plate (Cat. #3516) in 2 ml per well contained the need to transfection well so that the cells were 80-85% confluent at the time of transfection. • 4) Incubated the cells at 37° C. in a CO2 incubator for 6 hours.
• 5) Gently aspirated off the DMEM medium. Then added the Opti-MEM® Medium without serum into 6-well plate. • 6) Added 2.5 μg GPR68 and 2.5 μg GloSensor-22F in 1:1 ratio and 12 μl FuGeneHD into 120 μl of Opti-MEM® Medium without serum. Mixed gently and incubated for 15 min at room temperature. • 7) After the 15-minute incubation, added 137 μl of DNA-Transfection Reagent complexes to each well containing cells and medium. Mixed gently by rocking the plate back and forth. • 8) Incubated the cells at 37° C. in a co2 incubator for 19 h until they were ready to assay for transgene expression.
Seeded 40000 cells/well, 100 μl/well in 96-well plate (Cat. #3610) with complete DMEM medium; incubated overnight.
• 1) Compounds were solubilized in 100% DMSO to a concentration of 50 mM. • 2) Prepared compound DMSO solutions in 384 LDV echo plate: top concentration was 10 mM, 3-fold, 10 dose-response, so intermediate concentrations were created by serially diluting by […] beginning from the 10000 μM. 5 μL tested intermediate compounds+10 μl DMSO solutions were transferred to 384 LDV echo plate. Centrifuged the echo plate at 1000 rpm for 30s before Echo procedure. Compounds were transferred 180 nL volume by Echo550 to a 96-assay plate (corning, Cat #3599), to make compound 10 concentration points in duplicate (the final top concentration was 10 μM, 3-fold, 10 dose-response, in duplicate). Final DMSO concentration is 0.1%. • 3) For the Low control wells and High control wells, 180 nL DMSO were transferred by ECHO. • 4) Layout of assay plate 180 nL/well of compounds in 100% DMSO 180 nL/well DMSO in Low control wells and High control wells was as shown below. Compounds were prepared into assay plate at […] in 100% DMSO, the assay volume was […], and final DMSO concentration was 0.1%.
• 1)Removed culture medium, added 100 μL/well GloSensor (50×) to cells, then incubated for 2 h at room temperature.
• 2) Pre-read Luminescence at −5 min for background after 2 h incubation.
For the compound `O=C(/C=C/c1ccc2c(cnn2CC2CC2)c1)Nc1sccc1C(=O)O` [Compound 1], inhibition was half-maximal at 0.593 µM (IC50). For `NS(=O)(=O)c1ccccc1NC(=O)/C=C/c1ccc2c(cnn2CC2CC2)c1` [Compound 18, (E)-3-(1-(cyclopropylmethyl)-1H-indazol-5-yl)-N-(2-sulfamoylphenyl)acrylamide] the value was 7.39 µM; for `Cn1ncc2cc(/C=C/C(=O)Nc3ccccn3)ccc21` [Compound 9, (E)-3-(1-methyl-1H-indazol-5-yl)-N-(pyridin-2-yl)acrylamide], 3.46 µM. The compound `O=C(/C=C/c1ccc2c(cnn2CC2CC2)c1)NC1C2CC3CC(C2)CC1C3` (centres unmarked) [Compound 19] showed an IC50 of 9.7 µM. As to `O=C(/C=C/c1ccc2c(cnn2CC2CC2)c1)Nc1cccnc1C(=O)O` [Compound 7, (E)-3-(3-(1-(cyclopropylmethyl)-1H-indazol-5-yl)acrylamido)picolinic acid], it took 2.02 µM to reach half-maximal inhibition (IC50). Compared with the last compound, the IC50 is about 4.8-fold lower. The result for `O=C(/C=C/c1ccc2c(cnn2CC2CC2)c1)Nc1ccccc1C(=O)O` [Compound 6, (E)-2-(3-(1-(cyclopropylmethyl)-1H-indazol-5-yl)acrylamido)benzoic acid] reads 1.68 µM; that for `O=C(/C=C/c1ccc2c(cnn2CC2CC2)c1)Nc1ccccc1-c1nnn[nH]1` [Compound 16, (E)-N-(2-(1H-tetrazol-5-yl)phenyl)-3-(1-(cyclopropylmethyl)-1H-indazol-5-yl)acrylamide], 6.9 µM. For the compound `O=C(/C=C/c1ccc2c(cnn2CC2CC2)c1)Nc1ccccc1-c1n[nH]c(=O)o1` [Compound 14, (E)-3-(1-(cyclopropylmethyl)-1H-indazol-5-yl)-N-(2-(5-oxo-4,5-dihydro-1,3,4-oxadiazol-2-yl)phenyl)acrylamide], half-maximal inhibition (IC50) was put at 5.72 µM. For `O=C(/C=C/c1ccc2c(cnn2CC2CC2)c1)Nc1ccccc1` [Compound 8, (E)-3-(1-(cyclopropylmethyl)-1H-indazol-5-yl)-N-phenylacrylamide] the value was 2.08 µM. Regarding `O=C(/C=C/c1ccc2c(cnn2CC2CC2)c1)Nc1ccccc1-c1noc(=O)[nH]1` [Compound 13, (E)-3-(1-(cyclopropylmethyl)-1H-indazol-5-yl)-N-(2-(5-oxo-4,5-dihydro-1,2,4-oxadiazol-3-yl)phenyl)acrylamide], it took 4.81 µM to reach half-maximal inhibition (IC50). For `O=C(/C=C/c1ccc2c(cnn2CC2CC2)c1)Nc1c(F)cccc1C(=O)O` [Compound 36] the value was 11.5 µM; for `Cn1ncc2cc(/C=C/C(=O)Nc3ccccc3)ccc21` [Compound 11, (E)-3-(1-methyl-1H-indazol-5-yl)-N-phenylacrylamide], 3.83 µM; for `CN(C)S(=O)(=O)NC(=O)c1ccccc1NC(=O)/C=C/c1ccc2c(cnn2CC2CC2)c1` [Compound 17], 7.02 µM. `O=C(/C=C/c1ccc2c(cnn2CC2CC2)c1)Nc1ccccn1` [Compound 5, (E)-3-(1-(cyclopropylmethyl)-1H-indazol-5-yl)-N-(pyridin-2-yl)acrylamide] came in with an IC50 of 1.41 µM.

For `O=C(O)c1nn(C(=O)/C=C/c2ccc3c(cnn3CC3CC3)c2)c2ccccc12` [Compound 15], half-maximal inhibition (IC50) was put at 6.68 µM. Take `O=C(/C=C/c1cc2cnn(CC3CC3)c2cc1F)Nc1ccccc1C(=O)O` [Compound 4, (E)-2-(3-(1-(cyclopropylmethyl)-6-fluoro-1H-indazol-5-yl)acrylamido)benzoic acid]: half-maximal inhibition (IC50) was put at 1.29 µM. In turn, `O=C(/C=C/c1ccc2c(cnn2CC2CC2)c1)Nc1ccccc1F` [Compound 2, (E)-3-(1-(cyclopropylmethyl)-1H-indazol-5-yl)-N-(2-fluorophenyl)acrylamide] had a 50% inhibitory concentration (IC50) of 0.861 µM.

`O=C(/C=C/c1ccc2c(cnn2CC2CC2)c1)Nc1ccccc1NS(=O)(=O)CC(F)(F)F` [Compound 12, (E)-3-(1-(cyclopropylmethyl)-1H-indazol-5-yl)-N-(2-((2,2,2-trifluoroethyl)sulfonamido)phenyl)acrylamide]: the IC50 worked out at 4.49 µM. This IC50 is about 5.2-fold higher than that of the compound before. For `O=C(/C=C/c1ccc2c(cnn2CC2CC2)c1)Nc1ccc(F)cn1` [Compound 25], the IC50 was 14.9 µM. `O=C(/C=C/c1ccc2c(cnn2CC2CC2)c1)Nc1cccc(C(=O)O)n1` [Compound 10, (E)-6-(3-(1-(cyclopropylmethyl)-1H-indazol-5-yl)acrylamido)picolinic acid] showed an IC50 of 3.82 µM. This IC50 is about 3.9-fold lower than that of the compound before.

The compound `O=C(/C=C/c1ccc2c(cnn2CC2CC2)c1)Nc1cc(F)ccc1C(=O)O` [Compound 56] gave an IC50 of 3.52 µM.

Regarding `O=C(/C=C/c1ccc2c(cnn2CC2CC2)c1)Nc1ccc(F)cc1C(=O)O` [Compound 55], the IC50 stood at 8.6 µM. With `O=C(/C=C/c1ccc2c(cnn2CC2CC2)c1)Nc1ncccc1F` [Compound 23], the IC50 turned out to be 17 µM.

(Values after patent US20260209183A1, “HETEROCYCLIC COMPOUNDS AND USES THEREOF” (CERTA THERAPEUTICS PTY LTD, priority 2022, published 2026).)
